Data published in the OPERA property sets (Mansouri et al. 2018).

## O=C(O)c1cc([N+](=O)[O-])ccc1O
  logP: 2.34

## CN(C)c1nc(Cl)nc(N(C)C)n1
  logP: 2.31

## OCc1cccc(C(F)(F)F)c1
  logP: 2.24

## CC1CCC(O)CC1 (centres undefined)
  logP: 1.79

## COC(=O)c1cccc(N=NN(C)C)c1
  logP: 3.12

## CS(=O)(=O)c1ccc2ncccc2c1
  logP: 0.7

## CC(=O)C1CC1
  logP: 0.49

## N#CCCOc1ccccc1
  logP: 1.61

## O=NN(CCCl)C(=O)NC1C(O)CCCC1O (centres undefined)
  logP: 0.16

## CC1=CC(=O)C=CC1=O
  logP: 0.72

## O=C1CCC(=O)N1c1ccccc1F
  logP: 0.22

## Brc1cnc2ccccc2c1
  logP: 3.03

## CCOc1ccc2nccnc2c1
  logP: 2.22

## COc1cccc(N(C)C(=S)Oc2cccc(C(C)(C)C)c2)n1
  logP: 5.18

## CCCC(=O)OCC1CCC(n2cnc3c(=O)[nH]cnc32)O1 (centres undefined)
  logP: 0.11

## CC(=O)OC1CC(OC2C(O)CC(OC3C(C)OC(OC4CCC5(C)C(CCC6C5CC(O)C5(C)C(C7=CC(=O)OC7)CCC65O)C4)CC3OC(C)=O)OC2C)OC(C)C1O (centres undefined)
  logP: 2.45

## C=CCc1cccc2c(=O)c(C)c(-c3ccccc3)oc12
  logP: 4.67

## COc1ccc(O)c2nccc(C)c12
  logP: 2.75

## Clc1cccs1
  logP: 2.54

## CC(C)(C(=O)O)C(=O)O
  logP: 0.39

## CN(C)N=O
  logP: -0.57

## C=CCc1ccccc1OCC(O)CNC(C)C (centres undefined)
  logP: 3.1

## Fc1ccccc1F
  logP: 2.37

## CCN(CC)CCNC(=O)c1cc(C#N)c(N)cc1OC
  logP: 1.94

## NNC(=O)c1cccc(O)c1
  logP: -0.08

## CN(C)P(=O)(N(C)C)N(C)C
  logP: 0.28

## CCc1cccs1
  logP: 2.87

## O=C(O)c1ccc2cccccc1-2
  logP: 2.88

## COP1(=S)OCc2ccccc2O1 (centres undefined)
  logP: 2.67

## Brc1ccsc1
  logP: 2.62

## CSc1ccc(O)cc1
  logP: 1.78

## CCCCCCC1(CC)C(=O)NC(=O)NC1=O
  logP: 2.46

## Cc1cc(Cl)ccc1N=CN(C)C
  logP: 2.89

## Fc1cccc(F)n1
  logP: 1.17

## CCOc1ccc(O)cc1
  logP: 1.81

## Cc1ccsc1
  logP: 2.34

## CNC(=O)c1ccco1
  logP: 0.23

## FC(F)OC(Cl)C(F)(F)F (centres undefined)
  logP: 2.06

## BrCCCBr
  logP: 2.37

## NS(=O)(=O)c1cc2c(cc1Cl)N=CNS2(=O)=O
  logP: -0.24

## CCCCSCS(=O)CC(CO)NC(=O)C=Cc1c(C)[nH]c(=O)[nH]c1=O (centres undefined)
  logP: 0.14

## O=[N+]([O-])C=Cc1cccs1
  logP: 1.96

## COP(=O)(OC)OC
  logP: -0.65

## BrCCBr
  logP: 1.96

## C[C@@H]1C[C@H]2[C@@H]3CCC4=CC(=O)C=C[C@]4(C)[C@@]3(F)[C@@H](O)C[C@]2(C)[C@@]1(O)C(=O)CO
  logP: 1.83

## O=C(O)Cc1ccccc1
  logP: 1.41

## c1ccc(CNc2ccccc2)cc1
  logP: 3.13

## C[Si](C)(C)Cc1ccccc1
  logP: 4.13

## Ic1nc(I)c(I)[nH]1
  logP: 2.78

## COc1cc(CC(=O)O)ccc1OC(C)C
  logP: 1.75

## NS(=O)(=O)c1cccc([N+](=O)[O-])c1
  logP: 0.55

## N#CCc1ccc([N+](=O)[O-])cc1
  logP: 1.37

## CCC(=O)C(CC(C)N(C)C)(c1ccccc1)c1ccccc1 (centres undefined)
  logP: 3.93

## CCOC(=O)C(C#N)=Cc1ccccc1
  logP: 2.43

## Clc1cc(Cl)nc(-c2ccccc2)n1
  logP: 4.17

## O=C1CC(=O)NC(=O)N1
  logP: -1.47

## CC(C)=CC1C(C(=O)OCN2C(=O)C3=C(CCCC3)C2=O)C1(C)C (centres undefined)
  logP: 4.73

## CCCOC(=O)c1ccccc1
  logP: 3.01

## NNC(=O)c1cccc([N+](=O)[O-])c1
  logP: 0.23

## COc1cc(C(=O)NN)ccn1
  logP: -0.1

## COC(=O)/C=C\C(=O)OC
  logP: 0.22

## ON=CCCc1ccccc1
  logP: 1.56

## CP(C)c1ccccc1
  logP: 2.57

## CC(=O)NC(Cc1ccc(O)cc1)C(N)=O (centres undefined)
  logP: -0.87

## OCCCCl
  logP: 0.5

## c1ccc(-c2ccc3ccccc3n2)cc1
  logP: 3.9

## C1=CCOC1
  logP: 0.46

## CCC(C)c1ccc(OCC(=O)O)cc1 (centres undefined)
  logP: 3.12

## CON(C)C(=O)Nc1ccc([N+](=O)[O-])cc1
  logP: 1.74
